Test results as given in US8574925B2, “Fluorescence analysis method using fluorescent-activating antibodies” (Hamamatsu Photonics K.K., priority 2002, dated 2013).

What was measured:
Assay type in all cases: binding, guinea pig
anti-MG-Ins Fab [1] = experiment: Calibration curve: insulin concentration vs AO fluorescence intensity with anti-MG-Ins Fab and auramine O; details: 2 μM anti-MG-Ins Fab, 0.4 μM AO, excitation 400 nm, fluorescence 520 nm; FIG. 15
Method: A calibration curve was prepared for insulin concentrations in the range of 0 to 7.7 μM in the same manner as described above in [1-10-1] other than the changes of setting the anti-MG-Ins Fab concentration to 2 μM, using 0.4 μM of auramine O in place of 0.4 μM of malachite green, setting the excitation wavelength to 400 nm, and setting the fluorescence wavelength to 520 nm.

anti-MG-Ins Fab [2] = experiment: Verification test concerning the reversibility of the antigen-antibody reactions (AO fluorescence)
Method: The following experiment was carried out in order to confirm that, when the free insulin concentration in the same sample is varied by repeating the addition of insulin and the addition of anti-porcine insulin IgG (referred to hereinafter as “anti-insulin IgG”) in a solution containing the anti-MG-Ins Fab and auramine O, the measurement values of this invention vary following the variation of the free insulin concentration, that is, the antigen-antibody reactions concerning this invention are reversible and enable analysis in real time. The measurement of fluorescence intensity was carried out under the same measurement conditions as described above in [2-2-1].
First, 2 ml of a PBS solution, containing 2 μM of the anti-MG-Ins Fab and 0.4 μM of auramine O, were prepared. The AO fluorescence intensity was measured upon placing the solution in a cell. The florescence intensity at this time was set to a relative value of 1.
Insulin was then added to the solution in the cell so that the insulin concentration will be 1.26 μM.
A fixed amount (0.135 μM) of the anti-insulin IgG was then added to this solution. […] The AO fluorescence intensity returned to the original value since the anti-insulin IgG and insulin became bonded and free insulin no longer existed in the solution.
When insulin was then added again to this solution so that the insulin concentration will be 2.39 μM.

anti-MG-Ins Fab [3] = experiment: Calibration curve: insulin concentration vs MG fluorescence intensity with anti-MG-Ins Fab and malachite green; details: 1 μM anti-MG-Ins Fab, 0.4 μM MG, excitation 620 nm, fluorescence 650 nm; FIG. 13
Method: A calibration curve, indicating the relationship between the insulin concentration and fluorescence intensity for a fixed amount (1 μM) of the anti-MG-Ins Fab and a fixed amount (0.4 μM) of MG, was prepared as follows. Since the insulin used forms aggregate of a few molecules because of containing zinc, the insulin was dissolved in advance in PB containing SDS at a final concentration of 0.1% to dissociate the aggregate. The insulin solution thus obtained was thereafter run through a gel permeation column (Fast Desaliting Column HR 10/10, made by Pharnacia), equilibrated using PBS. The insulin solution from which SDS was thus removed was used in the following quantification. • (1) The fluorescence spectrophotometer was set to an excitation wavelength of 620 nm and a fluorescence wavelength of 650 nm and the temperature of the cell holder was maintained at a fixed temperature (25° C.). • (2) 2 ml (A=2 ml) of an antibody-dye solution, containing 1 μM (Y=1 μM) of the anti-MG-Ins Fab and 0.4 μM (Z=0.4 μM) of MG, were prepared (with phosphate buffered saline (pH 7.2, PBS) as the solvent) (S101). • (3) The antibody-dye solution thus obtained was placed in a standard fluorescence measurement cell. This cell was set in the fluorescence spectrophotometer. The solution in the cell was stirred for 30 seconds with a micro stirring bar. […]

anti-MG-Ins IgG = experiment: Fluorescence spectrum of auramine O bound to the anti-MG-Ins IgG; details: IgG 1 μM, AO 1 μM, PBS pH 7.2, 25° C., excitation 400 nm; FIG. 14
Method: The fluorescence spectrum of AO when AO is bound to the anti-MG-Ins IgG by an antigen-antibody reaction was measured as follows. The anti-MG-Ins IgG and AO were mixed so that the respective concentrations will be 1 μM and 1 μM (using phosphate buffered saline (pH 7.2, PBS) as the solvent). An antigen-antibody reaction was made to proceed by stirring for five minutes at 25° C. Then using the fluorescence spectrophotometer, the fluorescence spectrum emitted from the above-described mixed solution was measured under the conditions of an excitation wavelength of 400 nm, fluorescence wavelength of 450 to 650 nm, and bandpass width being set to 5 nm at both the excitation and fluorescence sides.

anti-MG-Ins Fab [4] = experiment: Fluorescence spectrum of malachite green bound to the anti-MG-Ins Fab; details: Fab 0.955 μM, MG 0.907 μM, PBS pH 7.2, 25° C., excitation 620 nm; FIG. 11
Method: The fluorescence spectrum of MG when MG is bound to the anti-MG-Ins Fab by an antigen-antibody reaction was measured as follows. The anti-MG-Ins Fab and MG were mixed so that the respective concentrations will be 0.955 μM and 0.907 μM (using phosphate buffered saline (pH 7.2, PBS) as the solvent). Then, an antigen-antibody reaction was made to proceed by stirring for five minutes at 25° C. Then using the fluorescence spectrophotometer, the fluorescence spectrum emitted from the above-described mixed solution was measured under the conditions of an excitation wavelength of 620 nm, fluorescence wavelength of 630 to 750 nm, and bandpass width being set to 5 nm at both the excitation and fluorescence sides.
Fluorescence spectra were also measured in the same manner as the above for various MG concentrations in the range of 0 to 0.9 μM with the anti-MG-Ins Fab concentration being set at 1 μM.

## insulin
anti-MG-Ins Fab [1]
  change of auramine O fluorescence intensity with increase of insulin concentration: inhibition of fluorescence occurs
anti-MG-Ins Fab [2]; insulin added again to 2.39 μM
  relative value of the AO fluorescence intensity: decreased again
anti-MG-Ins Fab [2]; insulin added again to 3.37 μM
  relative value of the AO fluorescence intensity: decreased
anti-MG-Ins Fab [2]; insulin added to 1.26 μM, 2 μM anti-MG-Ins Fab, 0.4 μM AO, start value 1
  relative value of the AO fluorescence intensity: approximately 0.97
anti-MG-Ins Fab [3]
  change of malachite green fluorescence intensity with increase of insulin concentration: enhancement of fluorescence occurs

## CN(C)c1ccc(C(=N)c2ccc(N(C)C)cc2)cc1 [auramine O]
anti-MG-Ins IgG
  fluorescence upon binding with the anti-MG-Ins IgG: became fluorescent

## CN(C)c1ccc(C(=C2C=CC(=[N+](C)C)C=C2)c2ccccc2)cc1 [malachite green]
anti-MG-Ins Fab [4]
  fluorescence upon binding with the anti-MG-Ins Fab: became fluorescent
